Laboratory results: patent publication US20200093123A1, “INSECTICIDAL EMULSION” (EVOLVA SA, priority 2016, published 2020)
Like-named read-outs stand apart in the source and are kept apart here.

Key:
[1] = rats; cited from earlier work
[2] = partially soluble in water; cited from earlier work
[3] = system: Aedes aegypti adult female mosquitoes; test: Arm over cage contact repellency, geraniol/co-solvent formulations (Example 18); format: in vivo; conditions: about 0.3 mL on collagen membrane aged one hour; 5 minute count; average of 4 replicates
Method: Twenty five Aedes aegypti adult female mosquitoes were introduced into a 1 ft×1 ft×1 ft cage. The mosquitoes were starved for at least 2 hours before repellency testing. The test formulation or control substance (see “Treatments”) was applied at a rate of approximately 0.3 mL onto a dampened collagen membrane (2.5 inches by 6 inches) to mimic the effect of skin, and the membrane was allowed to age for one hour while resting on a damp cloth. An untreated, dampened collagen membrane was placed on a mesh opening at the top of the test cage, and a researcher's arm was suspended -1/4 inch above the membrane to act as an attractant. The numbers of landings and probings of the untreated membrane were counted during a 5 minute period, and these counts were used as the baseline level of activity for that specific replicate of mosquitoes. Immediately after the baseline count, an aged, treated membrane was placed on top of the cage, and the numbers of landings and probings of the treated membrane were counted during a 5 minute period for the same replicate of mosquitoes. […] Repellency was calculated as one minus the ratio of the average number of probings or landings using the treated membrane divided by the average number of probings or landings using the untreated membrane from the same cages over the same four replicates of mosquitoes. […]

[4] = system: fire ants; test: Nootkatone residue on filter paper (Example 13); format: in vivo, fire ant
Method: (§1) Method: Nootkatone was solubilized in ethanol to a concentration of 1% w/v. The nootkatone solution, or solvent (ethanol) alone as a negative control, was applied directly to filter paper using a micropipette, in an amount of 1 mL for a 9 cm filter paper disc. Filter papers were allowed to dry completely before being cut to the appropriate size prior to the start of the test. Treated and untreated filter papers were cut so that they covered the bottom of a suitable container for each test species (see Table No. 4, below). At each observation period, arthropods were classified as alive, knocked down (KD) or dead.
(§2) Observation Methods: • a. […] Definitions of “Alive”, “Knockdown (KD)”, and “Dead” are as defined above.

[5] = system: biting midges; test: Nootkatone residue on filter paper (Example 13); format: in vivo, biting midge; conditions: 1% w/v nootkatone in ethanol dried on filter paper; mortality reached at 24 hours
Method: as §1, §2

[6] = system: Aedes aegypti larvae; test: Duration of larvicidal protection in treated water (Example 7); format: in vivo; conditions: 0.03% nootkatone/1% ethanol in water; larvae added 3-7 days after the water was treated; within 24 hours
[7] = system: aphids; test: Nootkatone residue on filter paper (Example 13); format: in vivo, aphid; conditions: 1% w/v nootkatone in ethanol dried on filter paper; mortality reached at 24 hours
Method: as §1, §2

[8] = system: termites; test: Nootkatone residue on filter paper (Example 13); format: in vivo, termite; conditions: 1% w/v nootkatone in ethanol dried on filter paper; at 72 hours
Method: as §1, §2

[9] = system: southern house mosquitoes (Culex quinquefasciatus); test: Nootkatone residue on filter paper (Example 13); format: in vivo; conditions: 24 h
Method: as §1, §2

[10] = system: Asian tiger mosquitoes (Aedes albopictus); test: Nootkatone residue on filter paper (Example 13); format: in vivo; conditions: 24 h
Method: as §1, §2

[11] = system: common malaria mosquitoes (Anopheles quadrimaculatus); test: Nootkatone residue on filter paper (Example 13); format: in vivo; conditions: 24 h
Method: as §1, §2

[12] = system: mosquito pupae; test: Prevention of adult emergence from pupae (Example 9, previous testing); format: in vivo, Aedes aegypti or Anopheles quadrimaculatus; conditions: 0.015% nootkatone/0.5% ethanol (v/v) in water for 48 hours
Source text: Pupae preparation. Eggs of Aedes aegypti or Anopheles quadrimaculatus were purchased from a commercial supplier. They were hatched in sterile MilliQ water and fed with finely ground TetraMin® fish food (fish meal, dried yeast, ground brown rice, shrimp meal, wheat gluten, feeding oat meal, fish oil, potato protein, dehulled soybean meal, soybean oil, algae meal, sorbitol, lecithin, monobasic calcium phosphate, ascorbic acid, yeast extract, inositol, niacin, L-ascorbyl-2-polyphosphate, riboflavin-5-phosphate, α-tocopherol-acetate, d-calcium pantothenate, thiamine mononitrate, pyridoxine hydrochloride, vitamin A palmitate, menadione sodium bisulfite complex, biotin, vitamin B12 supplement, cholcalciferol, manganese sulfate monohydrate, zinc sulfate monohydrate, ferrous sulfate monohydrate, cobalt acetate) until they developed into pupae.
Pupae experiments. Clean, glass 600 mL beakers were washed and thoroughly rinsed prior to use as test containers. On each of four testing days, pupae were removed from dishes used to grow larvae. Replicates of 10 pupae each were randomly assigned to glass beakers in a volume of 100 mL of sterile MilliQ water, and a treatment (see “Treatments” below) is added. The beakers are then covered lightly with Kimwipes® and secured by rubber bands to prevent escape of adults. […]
Treatments. […]

[13] = system: Aedes aegypti New Orleans strain adults; format: in vivo
Method: (§3) Method: Nootkatone was solubilized in acetone to a concentration of 1%, 0.607%, 0.368%, 0.224%, 0.136%, 0.082%, and 0.05%. 0.5 mL of solution was dispensed into a 5 cm diameter glass Petri dish for each replicate to be tested, using a fume hood and appropriate personal protective equipment. Liquid was dispensed to ensure that the entire base of the dish was covered with solution. Dishes were transferred to an orbital shaker set at a speed of 200 revolutions per minute. The dishes were shaken for 15 minutes to ensure even distribution on the surface of the plate. Control dishes were prepared in the same way using 0.5 mL of acetone without nootkatone. Dishes were allowed to dry for 4 hours before use. Dishes were stored at 4° C. until use. Groups of 10 adult female mosquitoes, 2-5 days old, were gently aspirated into a transfer pot system, and were then gently tapped out onto the surface of the treated or control Petri dishes. Although attempts are made to have groups of exactly 10 mosquitoes, group size could vary. Groups of more than 15 mosquitoes were excluded from testing, due to overcrowding. The opening to the dishes through which the mosquitoes were introduced was covered with parafilm to prevent escape. After 30 minutes of exposure to the Petri dishes, mosquitoes were transferred to paper cups for additional observation. They were supplied with 10% sucrose solution ad libitum. Three replicates, or 30 total adult female mosquitoes were tested for each concentration of nootkatone in acetone, and for the acetone-only controls. The mosquitoes tested were either the Aedes aegypti New Orleans strain, or Anopheles gambiae Kisumu strain.
as §2

[14] = system: Anopheles gambiae Kisumu strain adults; format: in vivo
Method: as §3, §2

[15] = system: yellow fever mosquitoes (Aedes aegypti) adults; test: whole plant or invertebrate; format: in vivo; conditions: 1% w/v nootkatone in ethanol dried on filter paper, mortality reached at 24 hours
Method: as §1, §2

[16] = system: mosquito pupae; test: Mosquito pupae killing (Example 8, previous testing); format: in vivo, Aedes aegypti or Anopheles quadrimaculatus; conditions: 0.03% nootkatone/1% ethanol; within 24 hours
Method: Pupae preparation. Eggs of Aedes aegypti or Anopheles quadrimaculatus were purchased from a commercial supplier. Eggs were hatched in sterile MilliQ water and fed with finely ground Tetramin® fish food until they developed into pupae.
Pupae experiments. Clean, glass 600 mL beakers were washed and thoroughly rinsed prior to use as test containers. On testing days, pupae were removed from dishes used to grow larvae. Replicates of 10 pupae each were randomly assigned to glass beakers in a volume of 100 mL of sterile MilliQ water, and a treatment (see “Treatments” below) is added. A minimum of three control replicates and 4 treated replicates were tested on more than one day. The beakers were then covered lightly with Kimwipes®, secured by rubber bands to prevent escape of adults. The beakers were observed after 24 hours, and the numbers of live pupae, dead pupae, live adults, and dead adults were recorded.
Treatments. An aliquot of 0.5-1 mL of formulations such as those used in Example 1 was added to each test beaker. Control beakers consist of 100 mL of sterile MilliQ water.

[17] = system: deer ticks; test: Nootkatone residue on filter paper (Example 13); format: in vivo, deer tick; conditions: 1% w/v nootkatone in ethanol dried on filter paper; at 72 hours
Method: as §1, §2

OCc1ccccc1 [benzyl alcohol]
LD50 [1]: 1200 mg/kg | solubility in water [2]: 4 g/100 ml

CCN(CC)C(=O)c1cccc(C)c1 [20% DEET in ethanol, N,N-Diethyl-meta-toluamide]
repellency against landings [3]: 98% | repellency against probings (bites) [3]: 100%

C=C(C)[C@@H]1CCC2=CC(=O)C[C@@H](C)[C@]2(C)C1 [nootkatone]
killed ([4]; 1% nootkatone dried on filter paper, within 24 hours): 100% | Mortality % ([4]; 1% w/v nootkatone in ethanol dried on filter paper, at 72 hours (table, no asterisk)): 100% | Mortality % [5]: 100% | larvae killed [6]: 100% | Mortality % [7]: 94% | Mortality % [8]: 90% | mortality at 1 % strength [9]: 98% | mortality at 1 % strength [10]: 98% | mortality at 1 % strength [11]: 98% | surviving adults eclosed from pupae [12]: no surviving adults | adults knocked down ([13]; residue of 0.5 mL 0.136% nootkatone in acetone on 5 cm glass dish, within 30 minutes): 47% | mortality ([13]; residue of 1% nootkatone in acetone, 30 minutes exposure, 24 hours after treatment): 89% | nootkatone concentration required to obtain significant mortality ([13]; residue on glass dish, 30 minutes exposure, 24 hours after treatment): 0.224% | adults killed ([14]; residue of 0.082% nootkatone, 24 hours after treatment): 50% | adults knocked down ([14]; residue of 0.5 mL 0.082% nootkatone in acetone on 5 cm glass dish, within 30 minutes): 41% | mortality ([14]; residue of 0.607% nootkatone, 24 hours after treatment): 100% | mortality ([14]; residue of 1% nootkatone, 24 hours after treatment): 100% | mortality at 1 % strength [15]: 100% | pupae died, average [16]: 94% | pupae died, one experiment [16]: 93% | pupae died, second day of testing [16]: 95% | Mortality % [17]: 98%
